From patent US20160199407A1, “HALIDES IN THE TREATMENT OF PATHOGENIC INFECTION” (THE UNIVERSITY OF IOWA RESEARCH FOUNDATION, priority 2008, published 2016)
Entries after “also recorded” stand apart in the source; their conditions may differ. Like-named read-outs stand apart in the source and are kept apart here.

Assays:
S. aureus = S. aureus killing on airway epithelial cell cultures with LPO and I^− or SCN^−; format: cell-based
H. influenzae = H. influenzae (NTHi) killing on airway epithelial cell cultures with LPO and I^− or SCN^−; format: cell-based
SARS-CoV (Urbani strain) = format: cell-based; conditions: human airway epithelia, 5 MOI, ATP (100 μM), 6.5 mg/mL LPO, NaI, pH 6.5, 24 hr
[1] = tested on: influenza A (H1N1, A/PR/8/34); format: cell-based; conditions: pH 6.5
eukaryotic cells = conditions: HOI: at bactericidal concentrations; cited from earlier work
[2] = tested on: adenovirus expressing eGFP; assay: In situ inactivation of adenovirus on AEC; conditions: porcine airway epithelia, 50 MOI, ATP (100 μM), 6.5 mg/mL LPO, NaI, PBS pH 6.5
adenovirus (serotype 5) = assay: In vitro (cell free) inactivation of adenovirus expressing eGFP; conditions: 5 min exposure, readout 24 hr later
A2 strain of RSV = assay: Cell free exposure of RSV to Duox/LPO system components, then titering; conditions: 5 min
M. haemolytica = M. haemolytica killing by AEC cultures; format: cell-based
human AEC = assay: HOI generation by AEC, fluorescein absorbance at 508 nm; format: cell-based; conditions: apical ATP (100 μM), I^− (400 μM), LPO (9 μg/ml), fluorescein (16 μM), 3 hours
primary airway epithelia = conditions: cited from earlier work
[3] = I^− accumulation in airway surface fluid after oral KI intake

OI [HOI]
Efficiency of HOI producing system against S. aureus versus OSCN^− producing mechanism (S. aureus; airway epithelia, LPO): more efficient | Bactericidal activity against H. influenzae (H. influenzae; airway epithelia, LPO): strong bactericidal activity | SARS-CoV inactivation (N gene product immunoreactivity) (SARS-CoV (Urbani strain)): sufficient H2O2 to support; also recorded: marked reduction | Influenza viral antigen (NS1) [1]: dose dependent decrease | Toxicity to eukaryotic cells (eukaryotic cells): not toxic | Adenovirus inactivation on airway epithelia (GFP expression) [2]: sufficient H2O2 to support; also recorded: dose dependent decrease | Adenovirus inactivation (eGFP expression in transduced A549 cells) (adenovirus (serotype 5)): inactivated; also recorded: dose-dependent decrease | Solution pH at which antiviral effect against RSV was most marked (A2 strain of RSV): ≤ 6.5 | Drop in RSV titer (A2 strain of RSV; PBS): 5 log

I [I^−, iodide]
Bacterial survival (S. aureus) (S. aureus; 50 and 200 μM I^−, LPO (7 μg/ml), epithelial cells, 1000 CFU, 3 hrs): No surviving bacteria | I^− concentration supporting complete elimination of S. aureus (S. aureus; AEC cultures, data not shown): 50 µM | I^− concentration at which numbers of surviving S. aureus were lower (S. aureus; LPO, airway epithelia, 3 hr): ≥ 10 µM | I^− concentration giving complete eradication of bacteria (S. aureus) (S. aureus; LPO, airway epithelia, 3 hr): 50 to 200 µM | Bacterial survival (H. influenzae) (H. influenzae; 200 and 500 μM I−, LPO (7 μg/ml), epithelial cells, 1000 CFU, 3 hrs): No surviving bacteria | I^− concentration sufficient to support strong NTHi-killing activity of AEC (H. influenzae; LPO present, catalase absent, data not shown): ≤ 50 µM | I^− concentration at which numbers of surviving H. influenzae were lower (H. influenzae; LPO, airway epithelia, 3 hr): ≥ 10 µM | I^− concentration giving complete eradication of bacteria (H. influenzae) (H. influenzae; LPO, airway epithelia, 3 hr): 50 to 200 µM | Elimination of M. haemolytica in the presence of I^− as compared to SCN^− (M. haemolytica): more effective | Susceptibility of M. haemolytica to supported antibacterial activity (M. haemolytica): susceptible | Bacterial survival (M. haemolytica) (M. haemolytica; LPO and 250 μM I^−, 3 hours): No surviving bacteria | HOI production by AEC (human AEC): can support HOI production | Basolateral concentration above which primary airway epithelia secrete the anion (primary airway epithelia): higher than 1 μM

N#CS [SCN^−, thiocyanate, reference compound]
SCN^− concentration necessary for killing of S. aureus (S. aureus; AEC cultures, data not shown): > 120 µM | SCN− in place of I^− in the oxidative mechanism eliminating H. influenzae (H. influenzae; LPO, epithelial cells, 3 hrs, 500 μM SCN^− controls): cannot replace I^− | Susceptibility of M. haemolytica to supported antibacterial activity (M. haemolytica): susceptible | Killing of M. haemolytica (M. haemolytica; 250 μM SCN^−, 3 hours): supported killing | Rate of apical-to-basolateral leakage (primary airway epithelia; Moskwa, 2007): < 10 %/hour | Basolateral concentration above which primary airway epithelia secrete the anion (primary airway epithelia; published data): > 5 µM

[I-].[K+] [KI, potassium iodide]
Airway surface fluid I^− concentration relative to serum I^− level ([3]; 8 hours after oral 130 mg KI): more than 50 fold | Sufficiency to achieve the airway surface fluid I^− level (10-50 μM) necessary for HOI-mediated elimination of bacteria and viruses ([3]; oral 130 mg KI): more than sufficient | Time the high airway surface fluid I^− concentration was maintained ([3]; oral 130 mg KI): several hours | I^− concentration in airway surface fluid ([3]; two hours after oral KI tablet (130 mg), human subject): ~200 µM

N#CSO [OSCN^−, hypothiocyanite, reference compound]
Susceptibility of NTHi (H. influenzae; AEC cultures, data not shown): resistant | Bactericidal activity against H. influenzae (H. influenzae; airway epithelia, LPO): ineffective | Influenza viral antigen (NS1) [1]: dose dependent decrease | Toxicity to eukaryotic cells (eukaryotic cells): not toxic | Virucidal effects on RSV (A2 strain of RSV; PBS): minimal virucidal effects
